Experimental data: patent US20160221948A1, “NITROGEN-CONTAINING SATURATED HETEROCYCLIC COMPOUND” (SUMITOMO CHEMICAL COMPANY, LIMITED, priority 2013, published 2016)

Target: human SSTR4 (Homo sapiens, UniProt P31391)
Experiment: Evaluation of agonist activities using human SSTR4-stably expressing cells (aequorin luminescence)
Assay type: cell-based
Parameters: expressed in transfected cells; host or cells: HEK293
Details: for EC50: luminescence signal, 1 μmol/L somatostatin taken as 100%; for SSTR4 agonist activity compared with other compounds: Tables 25 to 27
Procedure: Evaluation of Agonist Activities Using Cells that stably expressing human-derived SSTR4 (human SSTR4-stably expressing cells)
(1) Human SSTR4-Stably Expressing Cells
Human SSTR4-stably expressing cells were prepared, and cultured. Specifically, HEK293 cells, human kidney-derived cells, were used as host cells. By introducing pcDNA3.1 (cat. No. V79020, invitrogen, Carlsbad, Calif., USA) to which human SSTR gene was inserted into HEK293 cells, human SSTR4-stably expressing cell line was obtained. For selection, G418 (cat. No. 16513-84, Nacalai tesque, Japan) was used.
As the culture medium, D-MEM medium (cat. No. 11995, GIBCO, USA), containing 10% FBS and 200 μg/mL G418, was used, the culture was performed in a 225 cm^2 flask (cat. No. 11-006-010, Iwaki, Japan).
At about 80% confluence, the cells were harvested by treating with 20-fold diluted 0.25% Trypsin-EDTA (cat. No. 35554-64, Nacalai, tesque, Japan). The harvested cells were prepared at a reaction medium composed of Hanks Buffer (cat. No. 14065-056, invitrogen, Carlsbad, Calif., USA)/20 mM Hepes (cat. No. 15630-080, invitrogen, Carlsbad, Calif., USA), and 0.1% BSA (cat. No. A7906, Sigma Aldrich, USA) to 70000 cells/mL. Gα16 and apoaequorin were transiently introduced to the harvested cells, and the cells were seeded to a 384 well plate (cat. No. 781090, Greiner, Germany) at about 2000 cells/30 μL/well. On the next day of cell seeding, Coelenterazine H (cat. No. S2011, Promega, USA) was added to each well (10 μL/well) to make a final concentration of 0.5 μmol/L, and the plate was centrifuged. Then, the plate was left at room temperature for 4 hours in shaded state.
(2) Preparation of Test Compounds
DMSO solution of each test compound having 1000-fold larger concentration than the final concentration was prepared. The DMSO solutions were made to have 10-fold concentration than the final concentration with Hanks/20 mmol/L Hepes/0.1% BSA.
(3) Evaluation of Agonist Activity
For detection of luminescence signal due to SSTR4-stimulation, FDSS7000 (manufactured by Hamamatsu Photonics K.K.) was used. To plates having cells and the luminescence substrate, solutions of test compounds were added, then each luminescence signal was measured for 90 seconds, and each relative luminescence unit (RLU) was calculated. Based on luminescence signal from the wells to which a 1 μmol/L somatostatin solution was added taken as 100%, agonist activity of each test compound was evaluated.

Sequence of human SSTR4 (P31391 whole entry): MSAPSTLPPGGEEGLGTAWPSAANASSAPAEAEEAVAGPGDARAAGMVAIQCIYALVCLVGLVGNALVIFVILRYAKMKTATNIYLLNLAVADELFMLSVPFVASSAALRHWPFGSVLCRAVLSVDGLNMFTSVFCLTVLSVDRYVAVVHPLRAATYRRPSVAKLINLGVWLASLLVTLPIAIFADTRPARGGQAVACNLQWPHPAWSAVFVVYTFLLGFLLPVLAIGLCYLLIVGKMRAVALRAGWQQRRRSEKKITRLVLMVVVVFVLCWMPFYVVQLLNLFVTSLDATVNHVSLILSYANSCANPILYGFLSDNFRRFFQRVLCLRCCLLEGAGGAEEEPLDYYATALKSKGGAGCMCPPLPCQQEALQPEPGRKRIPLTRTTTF

| SMILES | EC50 [nM] | SSTR4 agonist activity compared with other compounds |
| --- | --- | --- |
| CN1CCC[C@H](C(=O)NC(C)(C)c2cccc(S(C)(=O)=O)c2)C1 [Example 62] | > 100 |  |
| CN1CCC[C@H](C(=O)NC(C)(C)c2ccccc2OC(F)F)C1 [Example 66] | 20.5 |  |
| Cc1cc(C)cc(C(C)(C)NC(=O)[C@H]2CCCN(C)C2)c1 [Example 25] | 15.9 |  |
| CN1CCC[C@H](C(=O)NC(C)(C)c2ccc(Cl)cc2)C1 [Example 42] | 45.6 |  |
| Cc1cccc(C(C)(C)NC(=O)[C@@H]2CC[C@H](C)N(C)C2)c1Cl (relative stereo) [Example 88] | 7.5 |  |
| CCCN1CCCC(C(=O)NC(C)(C)c2cccc3ccccc23)C1 (centres unmarked) [Example 117] | 6.9 |  |
| CN1CCC[C@H](C(=O)NC(C)(C)c2cc(F)ccc2Cl)C1 [Example 73, (3S)—N-[2-(2-chloro-5-fluorohenyl)propane-2-yl]-1-methylpiperidine-3-carboxamide] | 7.1 |  |
| CCc1ccccc1C(C)(C)NC(=O)[C@H]1CCCN(C)C1 [Example 76, (3S)—N-[2-(2-ethylphenyl)propane-2-yl]-1-methylpiperidine-3-carboxamide] | 1.9 |  |
| CC1CC(C(=O)NC(C)(C)c2cccc3ccccc23)CN(C)C1 (centres unmarked) [Example 86] | 16.2 |  |
| CN1CC(C(=O)NC(C)(C)c2cccc(Cl)c2Cl)CCC1(C)C (centres unmarked) [Example 97] | 85 |  |
| CN1CCC[C@H](C(=O)NC(C)(C)c2ccc(F)cc2)C1 [Example 69] | > 100 |  |
| CN1CC(C(=O)NC(C)(C)c2cccc(Cl)c2Cl)CC(F)(F)C1 (centres unmarked) [Example 101] | 33.6 |  |
| CCN1CCCC(C(=O)NC(C)(C)c2cccc3ccccc23)C1 (centres unmarked) [Example 111] | 6.9 |  |
| Cc1ccc(C(C)(C)NC(=O)[C@H]2CCCN(C)C2)cc1Cl [Example 47, (3S)—N-[2-(3-chloro-4-methylphenyl)propane-2-yl]-1-methylpiperidine-3-carboxamide] | 8 |  |
| Cc1ccc(C(C)(C)NC(=O)C2CCCN(C)C2)cc1C (centres unmarked) [Example 6] | 14.2 |  |
| C[C@@H]1CC[C@H](C(=O)NC(C)(C)c2cccc(Cl)c2Cl)CN1C (relative stereo) [Example 96] | 11.7 |  |
| CN1CC(C(=O)NC(C)(C)c2cccc3ccccc23)CC(C)(C)C1 (centres unmarked) [Example 93] | 6 |  |
| CC(C)N1CCC[C@H](C(=O)NC(C)(C)c2cccc3ccccc23)C1 [Example 115, (3S)—N-[2-(naphthalene-1-yl)propane-2-yl]-1-(propane-2-yl)pyperidine-3-carboxamide] | 1.9 | stronger SSTR4 agonist activity |
| CCN1CCCC(C(=O)NC(C)(C)c2cccc3ccccc23)C1 (centres unmarked) [Example 116] | 1.7 | stronger SSTR4 agonist activity |
| CN1CCC[C@H](C(=O)NC(C)(C)c2ccccc2S(C)(=O)=O)C1 [Example 64] | > 100 |  |

| SMILES | EC50 [nM] | SSTR4 agonist activity compared with other compounds |
| --- | --- | --- |
| CN1CCC[C@H](C(=O)NC(C)(C)c2ccsc2)C1 [Example 59] | > 100 |  |
| CCC(C)N1CCCC(C(=O)NC(C)(C)c2cccc3ccccc23)C1 (centres unmarked) [Example 120] | 22.7 |  |
| CN1CCC[C@H](C(=O)NC(C)(C)c2ccccn2)C1 [Example 56] | > 100 |  |
| CN1CCC[C@H](C(=O)NC(C)(C)c2ccc(Cl)c(Cl)c2)C1 [Example 22] | 10.9 |  |
| CC(C)c1cc(Cl)ccc1C(C)(C)NC(=O)[C@H]1CCCN(C)C1 [Example 33] | > 100 |  |
| CN1CCC[C@H](C(=O)NC(C)(C)c2cccc(F)c2)C1 [Example 75] | 73.3 |  |
| CN1CC[C@@H](C(=O)NC(C)(C)c2ccccc2Cl)C1 [Example 80] | > 100 |  |
| CCCN1CCC[C@H](C(=O)NC(C)(C)c2cccc3ccccc23)C1 [Example 114] | 6.2 |  |
| Cc1ccc(C)c(C(C)(C)NC(=O)[C@H]2CCCN(C)C2)c1 [Example 49] | 12 |  |
| CC[C@@H]1CC[C@@H](C(=O)NC(C)(C)c2cccc(Cl)c2Cl)CN1C (relative stereo) [Example 99] | > 100 |  |
| Cc1ccc(C(C)(C)NC(=O)[C@H]2CCCN(C)C2)c(Cl)c1 [Example 37, (3S)—N-[2-(2-chloro-4-methylphenyl)propane-2-yl]-1-methylpiperidine-3-carboxamide] | 2.5 | stronger SSTR4 agonist activity |
| CN1CCC[C@H](C(=O)NC(C)(C)c2cccnc2)C1 [Example 57] | > 100 |  |
| CN1CCCC(C(=O)NC(c2cccc3ccccc23)C(F)(F)F)C1 (centres unmarked) [Example 3] | 12.6 |  |
| CCN1CCC[C@H](C(=O)NC(C)(C)c2ccccc2Cl)C1 [Example 110, (3S)—N-[2-(2-chlorophenyl)propane-2-yl]-1-ethylpiperidine-3-carboxyamide] | 2.8 | stronger SSTR4 agonist activity |
| C[C@@H]1[C@H](C(=O)NC(C)(C)c2cccc3ccccc23)CCCN1C (relative stereo) [Example 84] | 19.8 |  |
| COC[C@@H]1CC[C@@H](C(=O)NC(C)(C)c2cccc3ccccc23)CN1C (relative stereo) [Example 104] | 81.4 |  |
| COc1ccccc1C(C)(C)NC(=O)[C@@H]1CN(C)CC[C@@H]1c1ccccc1 (relative stereo) [Example 107] | > 100 |  |
| COC1CC(C(=O)NC(C)(C)c2cccc3ccccc23)CN(C)C1 (centres unmarked) [Example 91] | 2.6 |  |
| CN1CCC[C@H](C(=O)NC(C)(C)c2ccncc2)C1 [Example 58] | > 100 |  |

Second part, the molecule after the results:

| EC50 [nM] | SSTR4 agonist activity compared with other compounds | SMILES |
| --- | --- | --- |
| 2.2 | stronger SSTR4 agonist activity | Cc1cccc(C(C)(C)NC(=O)[C@H]2CCCN(C)C2)c1Cl [Example 26, (3S)—N-[2-(2-chloro-3-methylphenyl)propane-2-yl]-1-methylpiperidine-3-carboxamide] |
| 3.1 |  | CC(C)(NC(=O)[C@H]1CCCN(CCF)C1)c1cccc2ccccc12 [Example 113] |
| 34.1 |  | Cc1cccc(C2(NC(=O)C3CCCN(C)C3)CC2)c1C (centres unmarked) [Example 5, N-[1-(2,3-dimethylphenyl)cyclopropyl]-1-methylpiperidine-3-carboxamide] |
| 2 |  | CN1CC[C@@H](c2ccccc2)[C@H](C(=O)NC(C)(C)c2cccc(Cl)c2Cl)C1 (relative stereo) [Example 106] |
| 10 |  | Cc1cc(C(C)(C)NC(=O)[C@H]2CCCN(C)C2)ccc1Cl [Example 48] |
| 9.4 |  | Cc1c(Cl)cccc1C(C)(C)NC(=O)[C@@H]1CC[C@H](C)N(C)C1 (relative stereo) [Example 87] |
| 3.7 | stronger SSTR4 agonist activity | Cc1cccc(C(C)(C)NC(=O)C2CCCN(C)C2)c1Cl (centres unmarked) [Example 13] |
| 62.7 |  | CN1CCC[C@H](C(=O)NC(C)(C)c2ccccc2F)C1 [Example 1, (3S)—N-[2-(2-fluorophenyl)propane-2-yl]-1-methylpiperidine-3-carboxyamide] |
| 11.2 |  | CC[C@@H]1CC[C@@H](C(=O)NC(C)(C)c2cccc3ccccc23)CN1C (relative stereo) [Example 89] |
| > 100 |  | CC(C)(NC(=O)C1CCCN(CCF)C1)c1cccc2ccccc12 (centres unmarked) [Example 112] |
| 7.8 |  | C[C@@H]1CC[C@@H](C(=O)NC(C)(C)c2cccc(Cl)c2Cl)CN1C (relative stereo) [Example 95] |
| 3.5 |  | CC(C)N1CCCC(C(=O)NC(C)(C)c2cccc3ccccc23)C1 (centres unmarked) [Example 119] |
| 1.2 | stronger SSTR4 agonist activity | COc1cc(Cl)c(Cl)cc1C(C)(C)NC(=O)[C@H]1CCCN(C)C1 [Example 52] |
| 4.8 |  | CN1CCC[C@H](C(=O)NC(C)(C)c2ccccc2OC(F)(F)F)C1 [Example 60, (3S)—N-{2-[2-(trifluoromethoxy)phenyl]propane-2-yl}-1-methylpiperidine-3-carboxamide] |
| 12.8 |  | CN1CCC[C@H](C(=O)NC(C)(C)c2cccc(Cl)c2)C1 [Example 41] |
| > 100 |  | CN1CCC[C@H](C(=O)NC(C)(C)c2ccc(S(C)(=O)=O)cc2)C1 [Example 63] |
| 84.9 |  | Cc1ccc(C(C)(C)NC(=O)[C@H]2CCCN(C)C2)cc1 [Example 45] |
| > 100 |  | CN1CCC[C@H](C(=O)NC(C)(C)c2ccc(Br)cc2)C1 [Example 68] |
| 5 |  | Cc1ccc(Cl)c(C(C)(C)NC(=O)[C@H]2CCCN(C)C2)c1 [Example 38, (3S)—N-[2-(2-chloro-5-methylphenyl)propane-2-yl]-1-methylpiperidine-3-carboxamide] |
